Experimental data as given in US10759766B2, “Certain chemical entities, compositions, and methods” (NeuPharma, Inc., priority 2011, dated 2020).

Legend:
KDR (VEGFR2) = KDR (VEGFR2) (Homo sapiens (Human), UniProt P35968); experiment: Z′-LYTE kinase inhibition assay (Invitrogen), KDR; format: biochemical; details: Z′-LYTE method; for inhibition at 1 µM: read-out: % inhibition at 1 μM against KDR; for IC50: read-out: IC50 against KDR
Summary of the method: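 Z′-LYTE FRET assay: 10 μL reactions with 0.5–11.7 ng KDR and 2 μM Tyr 01 peptide in 50 mM HEPES pH 7.5, 10 mM MgCl2, 1 mM EGTA, 0.01% BRIJ-35, 1 h at room temperature. Development Reagent B (1:256) added for 60 min, fluorescence read; IC50 from concentration–inhibition curves.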

BRAF = BRAF (Homo sapiens (Human), UniProt P15056); experiment: Z′-LYTE kinase inhibition assay (Invitrogen), BRAF; format: biochemical; details: 1 μM compound, Z′-LYTE method; for inhibition at 1 µM: read-out: % inhibition at 1 μM against BRAF
Method: Inhibitory activities Inhibitory activities of compounds against BRAF, and BRAF V600E were measured by Invitrogen using Z′-LYTE® Method as briefly described in the following. 4× Test compounds are dissolved in 1% DMSO. […] ATP solutions are diluted to a 4×ATP working concentration in Kinase Buffer (50 mM HEPES pH 7.5, 0.01% BRIJ-35, 10 mM MgCl2, 1 mM EGTA). Reaction started by 30-second shaking of mixture consisting of 2.5 μL 4× test compound, […] and 2.5 μL 4×ATP Solution on Bar-coded Corning, low volume NBS, black 384-well plate (Corning Cat. #3676). Then the mixture was incubated for 60-minute at room temperature for the kinase reaction, followed by addition of 5 μL of a 1:1024 dilution of development reagent A and 30-second plate shake. The mixture was then incubated for another 60-minute at room temperature for development reaction. Fluorescence was read by plate reader. IC50 was calculated by plotting the concentration of compound vs the percentage of inhibition in treated wells using GraphPad Prism 5.

A549 cells = experiment: Inhibition of cancer cell growth, MTT assay, A549; format: cell-based
Summary of the method: (§1)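 IC50 derived from percent growth inhibition versus concentration, tested in triplicate. Growth inhibition came from MTT read at 570 nm after 72 h drug exposure, relative to viable cells at dosing. Cells (about 4000/well, RPMI 1640 + 10% FBS) adhered 24 h before treatment; final DMSO 1%.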

BRAF V600E = BRAF V600E (Homo sapiens (Human), UniProt P15056, V600E); experiment: Z′-LYTE kinase inhibition assay (Invitrogen), BRAF V600E; format: biochemical; details: Z′-LYTE method; for inhibition at 1 µM: read-out: % inhibition at 1 μM against BRAF V600E; for IC50: read-out: IC50 against BRAF V600E
Summary of the method: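 FRET-based Z′-LYTE peptide phosphorylation format in 50 mM HEPES pH 7.5, 0.01% BRIJ-35, 10 mM MgCl2, 1 mM EGTA with ATP. Kinase reaction 60 min at room temperature, then protease development step 60 min at room temperature before fluorescence read. IC50 from compound concentration versus percent inhibition.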

A375 cells = experiment: Inhibition of cancer cell growth, MTT assay, A375; format: cell-based
Summary of the method: as §1

[1] = Homo sapiens, A549, 72 h exposure
[2] = Homo sapiens, A-375, 72 h exposure

Sequence of KDR (VEGFR2) (P35968 20-1356): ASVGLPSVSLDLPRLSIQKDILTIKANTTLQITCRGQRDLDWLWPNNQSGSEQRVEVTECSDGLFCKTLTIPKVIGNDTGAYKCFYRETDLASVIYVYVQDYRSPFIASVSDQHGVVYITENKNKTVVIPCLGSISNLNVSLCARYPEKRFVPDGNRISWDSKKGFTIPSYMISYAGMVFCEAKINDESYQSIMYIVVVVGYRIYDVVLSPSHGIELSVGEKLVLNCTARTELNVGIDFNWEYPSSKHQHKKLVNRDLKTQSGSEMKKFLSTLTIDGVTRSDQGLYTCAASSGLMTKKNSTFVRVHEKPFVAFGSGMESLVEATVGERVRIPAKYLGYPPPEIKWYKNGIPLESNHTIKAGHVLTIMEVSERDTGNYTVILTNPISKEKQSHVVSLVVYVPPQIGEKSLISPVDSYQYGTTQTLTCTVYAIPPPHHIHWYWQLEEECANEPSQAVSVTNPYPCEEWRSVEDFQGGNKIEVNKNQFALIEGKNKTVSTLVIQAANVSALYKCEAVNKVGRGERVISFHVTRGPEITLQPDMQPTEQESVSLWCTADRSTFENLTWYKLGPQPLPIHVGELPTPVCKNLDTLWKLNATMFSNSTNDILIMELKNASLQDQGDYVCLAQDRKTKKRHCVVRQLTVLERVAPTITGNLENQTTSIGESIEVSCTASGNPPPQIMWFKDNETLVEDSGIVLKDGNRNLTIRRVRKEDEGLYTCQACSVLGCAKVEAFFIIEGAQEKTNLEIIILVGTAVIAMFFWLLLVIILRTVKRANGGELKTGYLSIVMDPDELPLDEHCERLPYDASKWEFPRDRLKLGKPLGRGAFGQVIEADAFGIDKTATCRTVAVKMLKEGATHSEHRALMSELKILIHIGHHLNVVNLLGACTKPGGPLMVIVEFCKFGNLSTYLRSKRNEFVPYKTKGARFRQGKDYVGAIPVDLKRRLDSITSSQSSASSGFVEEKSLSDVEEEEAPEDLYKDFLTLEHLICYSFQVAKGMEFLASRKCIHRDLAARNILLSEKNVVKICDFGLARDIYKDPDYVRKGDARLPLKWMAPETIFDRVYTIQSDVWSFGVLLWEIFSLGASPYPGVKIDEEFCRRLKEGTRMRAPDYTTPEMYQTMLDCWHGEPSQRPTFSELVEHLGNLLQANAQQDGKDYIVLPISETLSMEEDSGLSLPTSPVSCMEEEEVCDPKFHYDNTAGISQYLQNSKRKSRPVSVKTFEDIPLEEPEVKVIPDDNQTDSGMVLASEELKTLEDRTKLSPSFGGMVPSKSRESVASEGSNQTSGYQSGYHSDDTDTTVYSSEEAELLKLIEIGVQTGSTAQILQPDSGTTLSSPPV
Sequence of BRAF (P15056 whole entry): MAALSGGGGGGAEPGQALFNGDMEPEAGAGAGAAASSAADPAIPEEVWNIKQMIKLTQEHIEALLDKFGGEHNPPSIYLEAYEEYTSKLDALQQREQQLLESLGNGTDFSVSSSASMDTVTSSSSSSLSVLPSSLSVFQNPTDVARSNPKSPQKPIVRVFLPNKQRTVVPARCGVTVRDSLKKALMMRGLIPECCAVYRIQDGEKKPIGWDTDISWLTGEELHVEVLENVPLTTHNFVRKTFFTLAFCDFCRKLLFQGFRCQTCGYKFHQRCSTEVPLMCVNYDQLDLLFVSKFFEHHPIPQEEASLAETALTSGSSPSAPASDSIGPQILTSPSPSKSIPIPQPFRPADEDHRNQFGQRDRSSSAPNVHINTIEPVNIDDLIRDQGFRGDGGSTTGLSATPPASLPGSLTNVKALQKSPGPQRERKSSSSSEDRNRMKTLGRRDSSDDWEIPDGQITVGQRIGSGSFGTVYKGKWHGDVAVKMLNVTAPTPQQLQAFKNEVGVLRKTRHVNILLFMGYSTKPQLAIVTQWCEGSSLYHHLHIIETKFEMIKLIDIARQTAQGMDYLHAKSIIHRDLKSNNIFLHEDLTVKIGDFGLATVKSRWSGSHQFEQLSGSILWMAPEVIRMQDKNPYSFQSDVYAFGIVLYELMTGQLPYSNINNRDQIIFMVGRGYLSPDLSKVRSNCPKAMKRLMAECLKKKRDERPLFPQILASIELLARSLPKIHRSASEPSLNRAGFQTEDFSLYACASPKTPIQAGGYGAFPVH
Sequence of BRAF V600E (P15056 whole entry V600E): as the sequence (P15056 whole entry) above, with V600E counted along it

% inhibition at 1 μM against KDR (KDR (VEGFR2); 1 μM compound)	% inhibition at 1 μM against BRAF (BRAF)	IC50 (A549 cells; 72 h exposure) [µM]	% inhibition at 1 μM against BRAF V600E (BRAF V600E; 1 μM compound)	IC50 (A375 cells; 72 h exposure) [µM]	inhibition at 1 µM (KDR (VEGFR2); 1 μM compound) [%]	IC50 (KDR (VEGFR2)) [µM]	inhibition at 1 µM (BRAF) [%]	IC50 (A549 cells; [1]) [µM]	inhibition at 1 µM (BRAF V600E; 1 μM compound) [%]	IC50 (BRAF V600E) [µM]	IC50 (A375 cells; [2]) [µM]	Compound
+ (less than 70% inhibition)	+ (less than 70% inhibition)	> 5	++ (between 70% and 89% inhibition)	> 5								1-(fluorophenyl)-3-(2,4,5-trifluoro-3-(quinoxaline-6-carbonyl)phenyl)urea [Compound C005]
					70 to 89	< 0.1	< 70	2 to 5	> 89	< 0.1	< 1	O=C(Nc1cc(F)cc(C(=O)c2ccc3ncc(N4CCOCC4)nc3c2)c1)c1cccc(C(F)(F)F)c1 [Compound C143, N-(3-fluoro-5-(3-morpholinoquinoxaline-6-carbonyl)phenyl)-3-(trifluoromethyl)benzamide]
					70 to 89	< 0.1	70 to 89	2 to 5	> 89		1 to 5	COc1cnc2ccc(C(=O)c3cc(NC(=O)Nc4ccc(F)cc4)ccc3F)cc2n1 [Compound C080, 1-(4-fluoro-3-(3-methoxyquinoxaline-6-carbonyl)phenyl)-3-(4-fluorophenyl)urea]
					> 89		70 to 89	2 to 5	> 89		< 1	O=C(Nc1ccc(F)c(C(=O)c2ccc3nccnc3c2)c1)c1cccc(C(F)(F)F)c1 [Compound C116, N-(4-fluoro-3-(quinoxaline-6-carbonyl)phenyl)-3-(trifluoromethyl)benzamide]
					< 70		70 to 89	< 2	> 89		1 to 5	O=C(Nc1cccc(C(=O)c2ccc3nccnc3c2)c1)Nc1cc(C(F)(F)F)ccc1Cl [Compound C002, 1-(2-chloro-5-(trifluoromethyl)phenyl)-3-(3-(quinoxaline-6-carbonyl)phenyl)urea]
					70 to 89		70 to 89	2 to 5	> 89		< 1	O=C(Nc1ccc(Cl)c(Cl)c1)Nc1ccc(F)c(C(=O)c2ccc3nccnc3c2)c1 [Compound C076, 1-(3,4-dichlorophenyl)-3-(4-fluoro-3-(quinoxaline-6-carbonyl)phenyl)urea]
					70 to 89		< 70	< 2	70 to 89		< 1	O=C(Nc1cc(F)c(F)c(C(=O)c2ccc3ncc(N4CCOCC4)nc3c2)c1)Nc1ccc(Cl)c(C(F)(F)F)c1 [Compound C041, 1-(4-chloro-3-(trifluoromethyl)phenyl)-3-(3,4-difluoro-5-(3-morpholinoquinoxaline-6-carbonyl)phenyl)urea]
					> 89	< 0.1	< 70	< 2	> 89	< 0.1	< 1	O=C(Nc1ccc(F)c(C(=O)c2ccc3nccnc3c2)c1)Nc1ccc(Cl)c(C(F)(F)F)c1 [Compound C015, 1-(4-chloro-3-(trifluoromethyl)phenyl)-3-(4-fluoro-3-(quinoxaline-6-carbonyl)phenyl)urea]
					70 to 89	> 0.1	< 70	2 to 5	70 to 89	> 0.1	> 5	O=C(Nc1cc(F)c(F)c(C(=O)c2ccc3nccnc3c2)c1F)c1cccc(C(F)(F)F)c1 [Compound C109, N-(2,4,5-trifluoro-3-(quinoxaline-6-carbonyl)phenyl)-3-(trifluoromethyl)benzamide]
					> 89	< 0.1	70 to 89	< 2	> 89	< 0.1	< 1	O=C(Nc1cccc(C(=O)c2ccc3ncc(N4CCOCC4)nc3c2)c1)Nc1ccc(Cl)c(C(F)(F)F)c1 [Compound C018, 1-(4-chloro-3-(trifluoromethyl)phenyl)-3-(3-(3-morpholinoquinoxaline-6-carbonyl)phenyl)urea]
					< 70		< 70	2 to 5	70 to 89		> 5	O=C(Nc1cc(F)c(F)c(C(=O)c2ccc3nccnc3c2)c1F)c1cccc(F)c1 [Compound C108, 3-fluoro-N-(2,4,5-trifluoro-3-(quinoxaline-6-carbonyl)phenyl)benzamide]
					> 89	< 0.1	< 70	2 to 5	70 to 89	> 0.1	< 1	O=C(Nc1ccc(F)c(C(=O)c2ccc3ncc(N4CCOCC4)nc3c2)c1)c1ccc(Cl)c(C(F)(F)F)c1 [Compound C134, 4-chloro-N-(4-fluoro-3-(3-morpholinoquinoxaline-6-carbonyl)phenyl)-3-(trifluoromethyl)benzamide]
					< 70		< 70	> 5	70 to 89		< 1	O=C(c1cccc(NC(=O)c2cc(C(F)(F)F)ccc2Cl)c1)c1ccc2nccnc2c1 [Compound C106, 2-chloro-N-(3-(quinoxaline-6-carbonyl)phenyl)-5-(trifluoromethyl)benzamide]
					> 89	< 0.1	< 70	2 to 5	70 to 89	> 0.1	< 1	O=C(Nc1cc(F)c(F)c(C(=O)c2ccc3ncc(N4CCOCC4)nc3c2)c1)c1ccc(Cl)c(C(F)(F)F)c1 [Compound C146, 4-chloro-N-(3,4-difluoro-5-(3-morpholinoquinoxaline-6-carbonyl)phenyl)-3-(trifluoromethyl)benzamide]
					> 89	< 0.1	70 to 89	2 to 5	> 89	< 0.1	< 1	O=C(Nc1cccc(C(=O)c2ccc3ncc(N4CCOCC4)nc3c2)c1)c1cccc(C(F)(F)F)c1 [Compound C119, N-(3-(3-morpholinoquinoxaline-6-carbonyl)phenyl)-3-(trifluoromethyl)benzamide]
					70 to 89	< 0.1	< 70	< 2	> 89	< 0.1	< 1	O=C(Nc1cccc(C(F)(F)F)c1)Nc1ccc(F)c(C(=O)c2ccc3nccnc3c2)c1 [Compound C014, 1-(4-fluoro-3-(quinoxaline-6-carbonyl)phenyl)-3-(3-(trifluoromethyl)phenyl)urea]
					> 89	< 0.1	< 70	> 5	> 89	< 0.1	> 5	O=C(Nc1cccc(C(=O)c2ccc3ncc(-c4cccnc4)nc3c2)c1)c1ccc(C(F)(F)F)c(Cl)c1 [Compound C124, 3-chloro-N-(3-(3-(pyridin-3-yl)quinoxaline-6-carbonyl)phenyl)-4-(trifluoromethyl)benzamide]
					< 70		< 70	> 5	< 70		> 5	O=C(Nc1ccc(F)c(C(=O)c2ccc3nccnc3c2)c1Cl)c1ccc(Cl)c(C(F)(F)F)c1 [Compound C112, 4-chloro-N-(2-chloro-4-fluoro-3-(quinoxaline-6-carbonyl)phenyl)-3-(trifluoromethyl)benzamide]
					70 to 89	< 0.1	70 to 89	< 2	> 89	< 0.1	< 1	O=C(Nc1cc(F)cc(C(=O)c2ccc3ncc(N4CCOCC4)nc3c2)c1)Nc1cccc(C(F)(F)F)c1 [Compound C038, 1-(3-fluoro-5-(3-morpholinoquinoxaline-6-carbonyl)phenyl)-3-(3-(trifluoromethyl)phenyl)urea]
